≈ marks a conversion by molar mass, not a printed value.
What was measured:
[1] = Plasma protein binding, dog; format: in vitro ADME; conditions: read-out: PPB (d) (converted)
[2] = Plasma protein binding, human; format: in vitro ADME; conditions: read-out: PPB (h) (converted)
[3] = NOD SCID Gamma mice at MED 30 mg/kg, first and last days of treatment
Source text: Figure S6. Blood concentration time profiles for late lead compounds in infected mice.
Mean free blood concentration time profiles following oral administration of late lead compounds to NOD SCID Gamma (A a n d B ) and IFN-Gamma KO (C and D) mice twice daily for 7 days as described in Fig. 1C and Fig. 4A) respectively. Data are mean ± SD (3 mice per group). Blood samples were collected on the first day (squares) and last day (circles) of compound dosing (Day 7 and 13 PI for NOD SCID Gamma, Day 6 and 13 for IFN-Gamma KO). Total drug concentrations were corrected for fraction unbound (fu) in PPB assay […]
mg/kg) was administered to NOD SCID Gamma mice. (B) DDD508 (10 mg/kg) was administered to NOD SCID Gamma mice. Blood concentrations were scaled to 30 mg/kg for comparison, assuming dose linearity. (C) DDD489 (50 mg/kg) was administered to IFN-Gamma KO mice. (D) DDD508 (50 mg/kg) was administered to IFN-Gamma KO mice.
(1 picture or pasted object on this page, not shown here)

P-gp (MDR1) = assay: in vitro; conditions: dog, MDCK-MDR1
[4] = Hepatocyte intrinsic clearance, human; format: in vitro ADME; conditions: human hepatocytes
[5] = Hepatocyte intrinsic clearance, dog; format: in vitro ADME; conditions: dog hepatocytes
hERG potassium channels = target: T1, hERG potassium channels (Homo sapiens, UniProt Q12809); assay: hERG inhibition, manual patch-clamp; format: cell-based; conditions: CHO cells
T1 construct: host or cells: Chinese Hamster Ovary (CHO) cells
T1 sequence (Q12809 whole entry): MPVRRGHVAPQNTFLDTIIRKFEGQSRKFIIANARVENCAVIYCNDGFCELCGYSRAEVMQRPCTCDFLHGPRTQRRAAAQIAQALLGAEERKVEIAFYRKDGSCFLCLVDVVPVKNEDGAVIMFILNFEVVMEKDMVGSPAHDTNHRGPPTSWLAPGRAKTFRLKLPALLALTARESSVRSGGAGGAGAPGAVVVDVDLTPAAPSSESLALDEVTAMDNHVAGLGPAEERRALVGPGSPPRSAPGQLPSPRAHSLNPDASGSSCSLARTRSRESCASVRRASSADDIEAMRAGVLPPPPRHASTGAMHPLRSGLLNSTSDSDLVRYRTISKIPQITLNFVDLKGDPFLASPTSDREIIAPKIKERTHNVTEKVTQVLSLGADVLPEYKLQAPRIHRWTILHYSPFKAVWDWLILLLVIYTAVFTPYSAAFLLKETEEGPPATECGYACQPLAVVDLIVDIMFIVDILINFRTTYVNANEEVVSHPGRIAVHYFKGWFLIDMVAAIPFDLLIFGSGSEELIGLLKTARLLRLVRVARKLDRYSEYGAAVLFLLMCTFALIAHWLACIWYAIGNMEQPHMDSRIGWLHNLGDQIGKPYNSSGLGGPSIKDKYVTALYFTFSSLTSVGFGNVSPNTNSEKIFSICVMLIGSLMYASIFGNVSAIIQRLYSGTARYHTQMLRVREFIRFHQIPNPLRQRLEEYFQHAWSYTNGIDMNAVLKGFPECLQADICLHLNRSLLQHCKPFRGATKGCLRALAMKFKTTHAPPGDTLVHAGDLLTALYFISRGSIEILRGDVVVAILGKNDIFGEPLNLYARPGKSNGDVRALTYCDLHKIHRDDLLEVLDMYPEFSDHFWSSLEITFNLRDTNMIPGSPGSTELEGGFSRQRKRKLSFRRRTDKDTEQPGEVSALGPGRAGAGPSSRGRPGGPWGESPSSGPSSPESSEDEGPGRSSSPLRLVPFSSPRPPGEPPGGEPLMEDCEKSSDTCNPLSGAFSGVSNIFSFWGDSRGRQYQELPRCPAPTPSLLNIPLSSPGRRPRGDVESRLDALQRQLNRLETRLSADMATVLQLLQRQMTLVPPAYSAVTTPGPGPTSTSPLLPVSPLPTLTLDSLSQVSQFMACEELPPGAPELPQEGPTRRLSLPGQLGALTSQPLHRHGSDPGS
Protocol: hERG inhibition (WuXi App Tec)
DDD489 and DDD508 were evaluated for their effects on cloned hERG potassium channels stably expressed in Chinese Hamster Ovary (CHO) cells using manual patch-clamp technique in a hERG inhibition assay conducted at WuXi App Tec (Suzhou). […]

Rat pharmacokinetics = format: in vivo; conditions: for half-life / Vd / AUC / Cmax / Tmax / bioavailability: male, Hans Wistar, whole blood; for half-life / Vd: 3 mg/kg, rat, IV; for half-life: read-out: T½ (converted); for Vd: read-out: Vdss; for bioavailability: read-out: F (oral bioavailability); for CLB: rat IV, clearance in blood
Protocol: Rat pharmacokinetics (Dundee)
As for mice except using male Hans Wistar rats (IV dose volume 1 mL/kg; PO dose volume: […]
Pharmacokinetic parameters were
derived from the blood concentration-time curve using WinNonLin Professional Software v
6.3 (Pharsight Corporation). […]

[6] = Liver microsomal intrinsic clearance, bovine; format: in vitro ADME; conditions: bovine liver microsomes
CHIlogD = format: physicochemical; conditions: pH 7.4
wild type parasites (WT) = assay: Transgenic C. parvum NanoLuciferase drug sensitivity assay, WT; format: cell-based; conditions: Cryptosporidium parvum, HCT-8, 48 h, read-out: EC50, WT
[7] = Aqueous (kinetic) solubility by UHPLC; format: physicochemical; conditions: 25 °C, aqueous buffer, kinetic from dmso stock, PBS pH 7.4, UHPLC
Protocol: As previously described.(27) […]
samples were prepared by adding 5 µL stock to PBS pH 7.4 (195 µL). This solution was mixed […]
The solubility test samples were […]
vacuum ﬁ ltered (Millipore Multiscreen HTS ﬁ lter, 96-well format) to remove any undissolved […]
material. The ﬁ ltrate was analyzed for dissolved drug compound using a truncated UHPLC […]
methodology. A calibration solution was prepared for each test compound. The 10 mM stock […]
solution was diluted in DMSO to give a 500 µM solution. This was further diluted with 50:50 […]
acetonitrile:water to give a 50 µM solution. Aliquots (0.2, 2.0, and 5.0 µL) of this 50 µM solution were injected onto the UHPLC system, and the areas of the resultant peaks were […]
integrated to produce a calibration line. Aliquots of the test sample ﬁ ltrate (0.4 and 5.0 µL) […]
were injected onto the UHPLC system and the resultant test compound peak areas quantiﬁ ed […]
using the calibration line. […]

[8] = Plasma protein binding, mouse; format: in vitro ADME; conditions: mouse PPB assay, read-out: fraction unbound (fu)
C. hominis = C. hominis growth inhibition in HCT-8 co-culture (image-based); conditions: Cryptosporidium hominis, HCT-8, 48 h, read-out: C. hominis EC50
Protocol: Cryptosporidium in vitro inhibition (Vermont and Dundee)
Compounds were prepared in 100% DMSO and added at the time of infection (NLuc) or 3 hours post infection (imaging assays). Compounds were prepared at 1% final concentration DMSO in culture. Parasites were quantified at 48 hours post infection. NanoLuciferase was measured using a GloMax Discovery, Promega.
A Nikon Ecl ipse Ti2000 epifluorescence microscope with an automated stage was programmed to focus on the center of each well and take a 3×3 composite image using an EXi blue fluorescence microscopy camera (QImaging) with a 20X objective (NA = 0.45). Nuclei and parasite images were separately exported as .tif files, and parasites and host cells were counted using custom NIH ImageJ macros as reported previously.(29) Dose−response curves were

Calf tolerability study = format: in vivo; conditions: 15 mg/kg twice daily oral 7 days
Protocol: Calf efficacy and tolerability study
Calf tolerability study (Moredun Scientific)
A tolerability study was conducted on uninfected calves prior to efficacy studies to confirm palatability and tolerance. Starting at day 2 post birth (“Day 1”), DDD489 or DDD508 were administered to four male calves per treatment group. The test compound was dosed at 15 mg/kg (maximum volume of 20 ml per occasion; prepared in vehicle: 0.5% HPMC, 0.4% Tween 80, 0.5% Benzyl alcohol in sterile water) for a total of 7 days. Administration was by oral gavage twice daily immediately prior to milk feeds, and at least 8 hours apart (± 30 minutes). Body weight was measured on day 0 and day 7, and clinical observations were recorded twice a day during dosing. Blood samples were collected from all animals prior to the morning treatment on Day 1, then 5 (± 2) minutes, 15 (± 2) minutes, 30 (± 5) minutes, 1, 2, 4, 8 and 24 hours (± 10 minutes) post first daily dose. This sample schedule was repeated on Day 7 for the same animals. Blood samples were processed to plasma. […]

HepG2 = HepG2 in vitro cytotoxicity; format: cell-based, human; conditions: for EC50: Homo sapiens, HepG2, cytotoxicity; for Cellular selectivity: ratio of mean HepG2/C. parvum EC50
[9] = Plasma protein binding, rat; format: in vitro ADME; conditions: read-out: PPB (r) (converted)
[10] = rat IV (DDD489 2.8, DDD508 3.47 mg/kg)

Structure (SMILES): Nc1nc2c(c(C(F)(F)F)n1)C(=O)N(CC1CCCC(C(F)(F)F)C1)C2 (centres unmarked) [DDD489]
- fraction unbound [1]: 0.3
- fraction unbound [2]: 0.23
- free blood concentration relative to EC90 [3]: only above the EC90 for around two hours
- efflux ratio (P-gp (MDR1)): 1.3
- Heps CLi (h) [4]: 1.1 mL/min/g
- Heps CLi (d) [5]: 1.8 mL/min/g
- IC50 (hERG potassium channels): > 30000 nM
- half-life (Rat pharmacokinetics): 1.2 h
- Vd (Rat pharmacokinetics): 3.2 L/kg
- AUC (Rat pharmacokinetics; [10]): 1200 ng·h/mL
- AUC (Rat pharmacokinetics; rat PO 10 mg/kg): 137 ng·h/mL
- Cmax (Rat pharmacokinetics; rat PO 10 mg/kg): 30 ng/mL
- Tmax (Rat pharmacokinetics; rat PO 10 mg/kg): 2 h
- bioavailability (Rat pharmacokinetics; rat PO 10 mg/kg): 3.2%
- CLB (Rat pharmacokinetics): 39 mL/min/kg
- Mics CLi (b) [6]: 25 mL/min/g
- chromatographic logD (CHIlogD): 2.8
- EC50 (wild type parasites (WT)): 85 nM
- solubility at 24 h [7]: 21 µM (≈ 8.03 µg/mL)
- fraction unbound [8]: 0.16
- EC50 (C. hominis): 40 nM
- tolerability in uninfected calves (Calf tolerability study): well tolerated
- EC50 (HepG2): 18000 nM
- Cellular selectivity (HepG2): 450 fold
- fraction unbound [9]: 0.42

Structure (SMILES): O=C(NCC1(O)CCCCC1)c1cc(=O)c2cc(O)ccc2o1 [DDD508]
- fraction unbound [1]: 0.52
- fraction unbound [2]: 0.42
- free blood concentration relative to EC90 [3]: only above the EC90 for around two hours
- efflux ratio (P-gp (MDR1)): 9.5
- Heps CLi (h) [4]: < 0.5 mL/min/g
- Heps CLi (d) [5]: 1.2 mL/min/g
- IC50 (hERG potassium channels): > 30000 nM
- half-life (Rat pharmacokinetics): 0.6 h
- Vd (Rat pharmacokinetics): 2.1 L/kg
- AUC (Rat pharmacokinetics; [10]): 900 ng·h/mL
- AUC (Rat pharmacokinetics; rat PO 10 mg/kg): 367 ng·h/mL
- Cmax (Rat pharmacokinetics; rat PO 10 mg/kg): 100 ng/mL
- Tmax (Rat pharmacokinetics; rat PO 10 mg/kg): 1 h
- bioavailability (Rat pharmacokinetics; rat PO 10 mg/kg): 14%
- CLB (Rat pharmacokinetics): 64 mL/min/kg
- Mics CLi (b) [6]: < 0.5 mL/min/g
- chromatographic logD (CHIlogD): 1
- EC50 (wild type parasites (WT)): 270 nM
- solubility at 24 h [7]: 184 µM (≈ 58.4 µg/mL)
- fraction unbound [8]: 0.6
- EC50 (C. hominis): 100 nM
- tolerability in uninfected calves (Calf tolerability study): well tolerated
- EC50 (HepG2): 18000 nM
- Cellular selectivity (HepG2): 140 fold
- fraction unbound [9]: 0.47

Source: PMC7617456, “Cryptosporidium lysyl-tRNA synthetase inhibitors define the interplay between solubility and permeability required to achieve efficacy” (Science translational medicine, 2024)
